Literature values as cited in US20120288450A1, “Chewing gum formula for enhancing psycho-spirituality” (priority 2009, published 2012).
Entries after “also recorded” stand apart in the source; their conditions may differ.

Assays:
[1] = mice
[2] = test system: various different bioreceptor sites; details: sites commonly effected by most other psychoactive compounds
[3] = in vivo
[4] = in vivo; remark: listed apart in the source
[5] = ingested orally
[6] = in vivo; remark: listed apart in the source
[7] = test system: dopamine in the nucleus accumbens; details: in vivo
[8] = target: anandamide (CB1) receptor (Homo sapiens, UniProt P21554)
[9] = moisture, light, and radiation
[10] = target: T1, Monoamine Oxidase Type-B (MAO-B) (Homo sapiens, UniProt P27338)
T1 sequence (P27338 1-520): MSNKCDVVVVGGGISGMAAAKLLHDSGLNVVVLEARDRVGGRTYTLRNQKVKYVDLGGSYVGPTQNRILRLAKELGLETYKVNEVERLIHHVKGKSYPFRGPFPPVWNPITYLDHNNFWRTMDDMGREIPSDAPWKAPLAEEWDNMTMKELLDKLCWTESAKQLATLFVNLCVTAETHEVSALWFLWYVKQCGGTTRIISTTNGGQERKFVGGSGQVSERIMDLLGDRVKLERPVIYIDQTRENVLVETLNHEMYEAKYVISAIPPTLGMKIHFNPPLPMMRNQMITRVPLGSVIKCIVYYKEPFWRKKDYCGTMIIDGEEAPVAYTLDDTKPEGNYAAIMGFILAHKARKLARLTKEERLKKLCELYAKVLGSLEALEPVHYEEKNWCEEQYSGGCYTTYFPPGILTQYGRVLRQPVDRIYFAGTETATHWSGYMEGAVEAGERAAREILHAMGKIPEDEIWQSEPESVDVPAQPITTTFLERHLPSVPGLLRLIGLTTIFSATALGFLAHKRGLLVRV

[11] = in vivo; remark: listed apart in the source
[12] = target: T2, Monoamine Oxidase Type-A (MAO-A) (Homo sapiens, UniProt P21397)
T2 sequence (P21397 1-527): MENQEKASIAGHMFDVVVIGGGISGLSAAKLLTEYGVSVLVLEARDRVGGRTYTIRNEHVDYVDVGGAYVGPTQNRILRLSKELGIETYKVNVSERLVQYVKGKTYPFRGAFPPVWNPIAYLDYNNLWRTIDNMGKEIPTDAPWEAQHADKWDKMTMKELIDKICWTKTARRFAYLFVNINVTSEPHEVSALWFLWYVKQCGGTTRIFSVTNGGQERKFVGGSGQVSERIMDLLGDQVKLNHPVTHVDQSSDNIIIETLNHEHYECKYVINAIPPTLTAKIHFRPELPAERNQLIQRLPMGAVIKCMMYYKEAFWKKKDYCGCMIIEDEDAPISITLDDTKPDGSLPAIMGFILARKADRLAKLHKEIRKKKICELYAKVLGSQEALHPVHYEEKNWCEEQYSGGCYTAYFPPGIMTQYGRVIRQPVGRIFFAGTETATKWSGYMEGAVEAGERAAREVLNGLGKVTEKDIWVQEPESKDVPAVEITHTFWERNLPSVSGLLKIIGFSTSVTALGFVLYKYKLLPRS

Sequence of anandamide (CB1) receptor (P21554 whole entry, species assumed): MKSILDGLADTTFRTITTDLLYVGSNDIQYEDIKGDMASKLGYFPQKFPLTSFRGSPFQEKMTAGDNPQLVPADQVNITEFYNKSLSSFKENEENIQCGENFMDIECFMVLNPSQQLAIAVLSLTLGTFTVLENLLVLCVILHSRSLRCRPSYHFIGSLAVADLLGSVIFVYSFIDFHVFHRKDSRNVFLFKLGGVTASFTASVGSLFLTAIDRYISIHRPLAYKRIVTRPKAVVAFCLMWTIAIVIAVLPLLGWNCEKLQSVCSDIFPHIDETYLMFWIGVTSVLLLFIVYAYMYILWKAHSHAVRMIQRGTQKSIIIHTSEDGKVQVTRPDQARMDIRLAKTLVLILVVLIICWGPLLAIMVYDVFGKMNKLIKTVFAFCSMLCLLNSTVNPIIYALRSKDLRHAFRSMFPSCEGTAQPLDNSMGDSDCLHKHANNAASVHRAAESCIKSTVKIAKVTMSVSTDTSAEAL

Structure (SMILES)	anxiolytic and anti-depressant findings [1]	competitive inhibition of reference target compounds at bioreceptor sites [2]	effect on cocaine-produced drug seeking [3]	toxicity [4]	entry into the blood stream [5]	minimal dose [6]	release of dopamine in the nucleus accumbens [7]	active binding to the MK-801 receptor site (MK-801 receptor sites)	active binding to the anandamide (CB1) receptor site [8]	stability of potency [9]	inhibition of MAO-B enzyme [10]	habit forming / addictiveness [11]	solubility in acetone	solubility in water and saliva (when still embedded in the leaf)	inhibition of MAO-A enzyme [12]	psychoactive effect / activity [6]
COC(=O)[C@@H]1C[C@H](OC(C)=O)C(=O)[C@H]2[C@@]1(C)CC[C@H]1C(=O)O[C@H](c3ccoc3)C[C@]21C [Salvinorin A]	anxiolytic and anti-depressant	has not been shown to incur any significant, competitive inhibition	successful in decreasing the effect of cocaine-produced drug seeking	almost entirely non-toxic; also recorded: ultra low toxicity	doesn't efficiently enter the blood stream	0.2 mg	does not induce the release of dopamine	nor has it shown any active binding	nor has it shown any active binding	diminish the potency	does not inhibit	non-habit forming and thus non-addictive	highly soluble	substantially water- and saliva-insoluble	does not inhibit	
COC(=O)[C@@H]1C[C@H](O)C(=O)[C@H]2[C@@]1(C)CC[C@H]1C(=O)O[C@H](c3ccoc3)C[C@]21C [Salvinorin “B”]																not known to induce psychoactive effect
